Reference: patent US20030216448A1, “Treatment of neuropathic pain” (priority 2002, published 2003)
Structures can show the parent of a compound that is named as a salt.

Experiments:
[1] = system: rat spinal nerve ligation model of neuropathic pain; experiment: mechanical allodynia (von Frey) in the spinal nerve ligation model of neuropathic pain; assay type: in vivo
Description: (§1) Under halothane anesthesia, the L5 and L6 spinal nerves were tightly ligated in the manner described previously by Chung et al. (Kim S. H., Chung J. M., An experimental model for peripheral neuropathy produced by segmental spinal nerve ligation in the rat. Pain 1992; 50:355-363.). Briefly, an incision was made on the dorsal portion of the hip, and the muscle was blunt dissected to reveal the spinal processes. The L6 transverse process was removed, and the left L5 and L6 spinal nerves were tightly ligated with 5.0 braided silk suture. The wound was cleaned, the membrane sewn with 4.0 dissolvable Vicryl suture and the skin closed with wound clips.
Implantation of the DRG catheters was performed immediately following nerve ligation, with animals maintained under halothane for the entire procedure (35-40 minutes). Catheters were constructed of PE 20 with small pieces of tygon tubing cemented along the catheter to allow for suture anchoring points during surgery. The left L5 DRG was exposed by removing the posterior articular process of the L5 vertebra. Gelfoam was inserted into the cavity to prevent the catheter from damaging the ganglion. The catheter was sutured to the muscle and fascia, then run subcutaneously to exteriorize between the shoulder blades. Saline was infused into the catheter, and it was heat sealed.
The implantation of i.c.v. cannulae were conducted under sodium pentobarbital (50 mg/kg, i.p. Nembutal) anesthesia with nerve ligation occurring just after the implantation; animals were maintained under anesthesia for the entire procedure (40-45 minutes). Animals were implanted with a 22 gauge guide cannulae (Plastics One, Roanoke Va.) cut to 6 mm. The stereotaxic coordinates from bregma were 1.0 mm posterior, 1.6 mm lateral, and 4.5 ventral (Paxinos G. and Watson C., The rat brain in stereotaxic coordinates. New York: Academic Press, 1997). Three skull screws were attached for stability, and the implant was covered with cranioplastic acrylic.
For i.c.v. (intracerebroventricular) infusion, chlorisondamine (10 μg) was dissolved in 5 μl phosphate buffered saline and infused by syringe pump at a rate of 5 μl/min. The infusion was performed 24 hours prior to testing in order to reduce stress to the animals immediately prior to behavioral testing.
For all other routes of administration including intraperotineal (i.p.), intradermal (i.d.) or onto the DRG, chlorisondamine was dissolved in saline. The final volumes for i.p. injections were 1 ml/kg, for i.d. were 50 μl and for DRG injections were 10 μl. All injections were made by hand held syringe.
For the assessment of neuropathic pain, mechanical allodynia in the affected paw of animals who had undergone spinal nerve ligation was evaluated using von Frey filaments. As described previously (Chaplan et al., Quantitative assessment of tactile allodynia in the rat paw. J Neurosci Meth, 1994; 53:55-62), two weeks following surgery, rats were acclimated to the testing box which was constructed of plexiglass with a wire mesh floor to allow access to the planter surface of the hind paws. Using the Dixons Up-Down method, a baseline level of allodynia was taken with allodynia defined as a withdrawal threshold ≦4 g. Test compounds were then administered and subsequent withdrawal thresholds determined.
For spinal nerve ligation experiments, the timing of antagonist administration depended upon the route of administration. With i.c.v. administration, chlorisondamine or its vehicle was given 24 hours prior to further manipulation. On the day of the experiment, a baseline allodynia score was determined and then A-85380 or its vehicle control was given and measures taken at 15, 30 and 60 minutes post agonist injection. Dose response curves for i.p., i.d. and DRG administration were also determined using this time line. […]

[2] = system: rat paw withdrawal model of acute thermal pain; experiment: rat paw withdrawal model of acute thermal pain, normal rats; assay type: in vivo; conditions: A-85380 0.75 μmol/kg
Description: For the assessment of acute pain, a paw thermal stimulator was used to evaluate nociceptive responses to an acute thermal stimulus (Anesthesiology Research Laboratory, Department of Anesthesiology, University of California at San Diego, La Jolla, Calif.). The device and behavioral procedure have been described previously (Hargreaves et al., A new and sensitive method for measuring thermal nociception in cutaneous hyperalgesia, Pain 1988, 32:77-88; Dirig et al., Characterization of variables defining hind paw withdrawal latency evoked by radiant thermal stimuli, J. Neurosci. Meth. 1997; 76:183-191). […] The measured nociceptive response was the latency to withdraw the hind paw when heated by light from a focused projector lamp (current set at 4.8 A). […]
(§2) For acute thermal pain experiments, a baseline withdrawal threshold was determined, and then chlorisondamine or its vehicle was administered. […]
For experiments with repeated measures, i.e. acute thermal pain and mechanical allodynia, data were first analyzed using a two way repeated measures analysis of variance (ANOVA) with two independent factors. For experiments without repeated measures, i.e. formalin, data were first analyzed using a two way ANOVA with two independent factors. […] All post hoc significance was determined using Fishers LSD.

[3] = system: rat paw withdrawal model of acute thermal pain using neuropathic rats; experiment: rat paw withdrawal model of acute thermal pain using neuropathic rats; assay type: in vivo; conditions: antagonist 0.4 μmol/kg, i.p., A-85380 0.75 μmol/kg
Description: as §1
For the assessment of acute pain, a paw thermal stimulator was used to evaluate nociceptive responses to an acute thermal stimulus (Anesthesiology Research Laboratory, Department of Anesthesiology, University of California at San Diego, La Jolla, Calif.). […] The measured nociceptive response was the latency to withdraw the hind paw when heated by light from a focused projector lamp (current set at 4.8 A). […]
as §2
To address this concern, neuropathic rats were assessed in the acute thermal model of paw withdrawal. […]

[4] = system: formalin model of persistent pain; experiment: formalin model of persistent pain, phase two; assay type: in vivo, rat; conditions: A-85380 0.75 μmol/kg
Protocol: The formalin test was used as an assessment of persistent pain. The method, described previously (Bannon et al. 1998) is briefly as follows. Following acclimation to the test environment, 50 μl of a 5% formalin solution was injected subcutaneously into the dorsal surface of one of the rear paws. Only phase two, defined as the 20 minute period from 30 to 50 minutes post formalin injection, was scored for nocifensive behaviors including flinching, licking, and biting.
For formalin experiments, chlorisondamine or its vehicle was infused either 24 h or 40-50 minutes prior to further manipulation. A-85380 was then injected and, 5 minutes later, formalin was injected into the paw. Measures were taken between 30 and 50 minutes post formalin injection.
For experiments with repeated measures, i.e. acute thermal pain and mechanical allodynia, data were first analyzed using a two way repeated measures analysis of variance (ANOVA) with two independent factors. For experiments without repeated measures, i.e. formalin, data were first analyzed using a two way ANOVA with two independent factors. If there was a significant interaction of both factors or of both factors and time, subsequent post hoc one way ANOVAs were performed using each treatment combination as an independent group. The difference in paw withdrawal latencies between the affected and unaffected paw of neuropathic animals tested in acute thermal pain was assessed using a paired t-test. All post hoc significance was determined using Fishers LSD.

[5] = side effects observed after injection in spinal nerve ligated rats; assay type: in vivo, rat

Structure (SMILES): C[N+](C)(C)CC[N+]1(C)Cc2c(Cl)c(Cl)c(Cl)c(Cl)c2C1 [chlorisondamine, chlorisondamine diiodide]
- effect of systemically administered antagonist on A-85380 induced anti-allodynia ([1]; antagonist 0.4 μmol/kg, i.p. 30 minutes prior, A-85380 0.75 μmol/kg, i.p.): completely blocked
- effect of systemic antagonist on anti-allodynia induced by A-85380 infused onto the DRG ([1]; antagonist 0.4 μmol/kg, i.p. 30 minutes prior, A-85380 20 μg onto DRG): completely blocked
- effect of i.c.v. antagonist on A-85380 induced anti-allodynia ([1]; antagonist 10 μg i.c.v. 24 hours prior, A-85380 0.75 μmol/kg, i.p.): completely blocked
- effect of antagonist pretreatment on the antinociceptive action of A-85380 ([2]; antagonist 0.4 μmol/kg, i.p. 30 minutes prior): no effect
- effect of antagonist on A-85380 induced antinociception in neuropathic rats [3]: did not alter
- effect of systemically administered antagonist on A-85380-induced analgesia ([4]; antagonist 0.4 μmol/kg, i.p. 40-50 minutes prior to formalin): no significant attenuation
- effect of i.c.v. antagonist on A-85380-induced analgesia ([4]; antagonist 10 μg i.c.v. 24 hours prior, i.p.): completely blocked

Structure (SMILES): O=C(NO)c1cncc(N2C[C@H]3CNC[C@H]32)c1 [A-420503, (IR, 5S) 5-(3,6-diazabicyclo [3.2.0]hept-6-yl)-N-hydroxy-nicotinamide]
- anti-allodynia at the DRG ([1]; 4.77 μmol/kg, i.p.): significant anti-allodynia
- anti-allodynia when injected i.p. ([1]; 62 μmol/kg, i.p.): significant anti-allodynia
- effect of antagonist pretreatment on the compound's effects at the DRG ([1]; pretreatment with an NMR antagonist): blocked
- side effects when injected i.p. ([5]; 62 μmol/kg, i.p.): without any notable side effects

Structure (SMILES): CNC1(C)C2CCC(C2)C1(C)C (stereo not shown) [Mecamylamine, mecamylamine hydrochloride]
- effect of antagonist pretreatment on A-85380 induced anti-allodynia ([1]; antagonist 1 μmol/kg, i.p. 30 minutes prior, A-85380 0.75 μmol/kg, i.p.): completely blocked
- effect of antagonist on prostration and ataxia following A-85380 injection ([5]; antagonist 1 μmol/kg, i.p. 30 minutes prior to A-85380): blocked the prostration and ataxia

Structure (SMILES): C[N+](C)(C)CCCCCC[N+](C)(C)C [Hexamethonium, hexamethonium]
- effect of systemically administered antagonist on A-85380 induced anti-allodynia ([1]; antagonist 19 μmol/kg, i.p. 30 minutes prior, A-85380 0.75 μmol/kg, i.p.): blocked

Structure (SMILES): Cl.Cl.c1cncc(OC[C@@H]2CCN2)c1 [A-85380, 3-(2(S)-azetidinylmethoxy)pyridine dihydrochloride]
- duration of anti-allodynia after DRG infusion ([1]; 10 μg onto the L5 DRG): 15 min
- duration of anti-allodynia after DRG infusion ([1]; 20 μg onto the L5 DRG): 30 min
- anti-allodynia after ipsalateral paw injection ([1]; 10, 20 and 50 μg/rat, i.d., affected paw, predominately at 15 minutes): only the 50 μg dose of A-85380 had an anti-allodynic effect
- anti-allodynia after contralateral paw injection ([1]; 10, 20 and 50 μg/rat, i.d., unaffected paw, predominately at 15 minutes): all three doses of A-85380 induced a significant anti-allodynia
- anti-allodynia when infused onto the L5 DRG ([1]; 10 and 20 μg onto the L5 DRG on the side of the ligation): significant anti-allodynia
- potency to increase paw withdrawal threshold, DRG compared with i.p. and i.d. administration ([1]; i.d. and DRG doses converted to equivalent systemic dose, fifteen-minute time point): decidedly more potent when administered directly onto the DRG
- anti-allodynia (paw withdrawal threshold), systemic administration ([1]; i.p., multiple doses, 15, 30 and 60 minutes): dose dependent anti-allodynia
- antinociception (increase in paw withdrawal latency) ([2]; i.p.): antinociceptive action
- behaviors induced immediately following injection ([5]; A-85380 0.5-1.0 μmol/kg, i.p.): prostration and ataxia
- time point by which prostration and ataxia abated ([5]; A-85380 0.5-1.0 μmol/kg, i.p.): ≤ 15 min
- analgesia (decrease in flinches), phase two of formalin test ([4]; i.p.): analgesic effects
